The values below come from article PMC3111092 (Journal of natural products, 2011).

In one assay the test system is NF-κB p65. Put plainly: ELISA based NF-κB p65 inhibitory assay in HeLa cells. Format: cell-based. The settings on record: for IC50: Homo sapiens, HeLa, read-out: NF-κB inhibitory activity IC50; for NF-κB inhibition activity (in words): HeLa cells, p65 ELISA.
The test system of the next assay is Escherichia coli. Put plainly: Antimicrobial agar plate diffusion assay. Format: cell-based.
The test system of the next assay is Bacillus subtilis. Put plainly: Antimicrobial agar plate diffusion assay. Format: cell-based.
For the next assay, the system named is Staphylococcus aureus. Kind of assay: Antimicrobial agar plate diffusion assay. In kind it is cell-based.
The subject of the next assay is TAK1. The settings on record: reported previously; cited from earlier work.

In the case of `COc1cc(O)c2c(c1)/C=C/C[C@H](O)[C@H](O)[C@H](O)/C=C/C[C@H](C)OC2=O` [compound 3, 7-epi-zeaenol], the IC50 with NF-κB p65 is > 50 µM. Moreover, the MIC against Escherichia coli is > 500 µg/mL.

Turning to `C[C@H]1C/C=C\C(=O)[C@@H](O)[C@@H](O)C/C=C/c2cc(O)cc(O)c2C(=O)O1` [compound 1, 15-O-desmethyl-5Z-7-oxozeaenol], the “NF-κB inhibition activity (in words)” value in the assay on NF-κB p65 is “sub-micromolar”.

On to `COc1cc(O)c2c(c1)/C=C/C[C@H](O)[C@H](O)[C@@H](O)/C=C/C[C@H](C)OC2=O` [compound 2, zeaenol], for which the MIC against Bacillus subtilis and against Staphylococcus aureus was > 500 µg/mL each time. For the same compound, the IC50 in the assay on NF-κB p65 is > 50 µM.

For the compound `CC1(C)S[C@@H]2[C@H](NC(=O)Cc3ccccc3)C(=O)N2[C@H]1C(=O)O` [penicillin G, reference compound], the “lowest concentration at which biological activity could be detected” value in the assay on Escherichia coli (positive controls) stood at 100 μg/mL.

In the case of `COc1cc(O)c2c(c1)/C=C/C[C@H](O)[C@H](O)C(=O)/C=C\C[C@H](C)OC2=O` [compound 5, 5Z-7-oxozeaenol], the “NF-κB inhibition activity (in words)” value in the assay with NF-κB p65 was “sub-micromolar”. Also, the MIC against Staphylococcus aureus was > 500 µg/mL. In addition, the TAK1 inhibition result in the assay on TAK1 is listed as “potent inhibitor”.
